# Data taken from patent US12414953B2, “Selective inhibitors of protein arginine methyltransferase 5 (PRMT5)” (Prelude Therapeutics, Incorporated, priority 2019, dated 2025).
# pIC50: −log10 of the molar value.
# Assays:
# U-87 MG cells = experiment: Cell proliferation assay (CCK-8, day 10); assay type: cell-based; settings: Homo sapiens, 240 h, U-87 MG cell line, read-out: Prolif. IC50
# Experimental: One day before experiment, Granta-519 cells were passaged to a density of 0.5×10^6 cells/ml. U-87 MG cells were trypsinized and 2,000 cells were seeded into 96-well plates and allowed to grow overnight. On the day of experiment (day 0), Granta-519 Cells were spun down at 1,500 rpm for 4 min, resuspended in fresh medium to 0.5×10^6 cells/ml and 190 μL of cells were added to 96 well plates. For U-87 MG cells, old medium was removed and replaced with 190 uL fresh medium. Compound working stocks were first diluted at 1:50 with fresh medium in 96 well plate and 10 μL of diluted drugs were added to 96 well plates containing cells and incubated for 3 days. DMSO was used a vehicle control.
# One day 3, 50 μL of Granta-519 cells were transferred to a new 96-well plate and 140 uL fresh medium was added. […]
# On day 10, 100 μL Granta-519 cells were transferred to a new 96 well plate and 10 μL of Cell Counting Kit-8 (CCK-8, Jojindo, CK04-13) solution was added. […] Plates were incubated in CO2 incubator for 2 hours (Granta-519 cells) or 30 min (U-87 MG cells) and OD450 values were measured with a microplate reader (iMark microplate reader, Bio-Rad). Percentage of viable cells, relative to DMSO vehicle control, were calculated and plotted in Graphpad Prism ([Inhibitor] vs. normalized response−Variable slope) to determine proliferation IC50 values on day 10. […]
# [1] = Solubility of HCl salt in solvents, saturated solution analyzed by HPLC; assay type: physicochemical; settings: thermodynamic from solid; for solubility: 21 °C, 21 ± 1° C.; for solubility at 24 hr: 50 °C, 50 ± 1° C.
# Experimental: (§1) 3 mL of the tested solvent was added to a 4 mL of vial. Formula IA was added until a cloudy solution was obtained at 21±1° C. About 30 mg additional Formula IA was added to the cloudy solution. The mixture was agitated at 21±1° C. for a weekend, during which the temperature was controlled by IKA® ETS-D5 temperature controller and IKA® RCT basic safety control. The mixture was filtered using a syringe filter (PTFE, […], 13 mm, Agela Technologies Inc.). The satuatred solution was transferred into an HPLC vial, diluted with methanol, and analyzed by HPLC.
# as §1, with “2 mL” for “3 mL”, “at 50±1°” for “at 21±1°”, “for 24 hr,” for “for a weekend,”, “The saturated” for “The satuatred”
# [2] = organic solvent or mixture, EtOAc
# [3] = organic solvent or mixture, EtOH
# [4] = organic solvent or mixture, IPA
# [5] = organic solvent or mixture, IPAc
# [6] = organic solvent or mixture, MeCN
# [7] = organic solvent or mixture, Methanol
SMILES,pIC50 (U-87 MG cells),"solubility [1, 2] [µg/mL]","solubility [1, 3] [µg/mL]","solubility [1, 4] [µg/mL]","solubility [1, 5] [µg/mL]","solubility [1, 6] [µg/mL]","solubility [1, 7] [µg/mL]",solubility ([1]; Water) [µg/mL],"solubility at 24 hr [1, 2] [µg/mL]","solubility at 24 hr [1, 3] [µg/mL]","solubility at 24 hr [1, 4] [µg/mL]","solubility at 24 hr [1, 5] [µg/mL]","solubility at 24 hr [1, 6] [µg/mL]","solubility at 24 hr [1, 7] [µg/mL]",solubility at 24 hr ([1]; Water) [µg/mL]
"Cc1ncnc2c1ccn2[C@@H]1O[C@H]([C@@H]2OCCc3cc(Cl)ccc32)[C@@H](O)[C@H]1O [Formula I, (2S,3S,4R,5R)-2-((R)-6-chloroisochroman-1-yl)-5-(4-methyl-7H-pyrrolo[2,3-d]pyrimidin-7-yl)tetrahydrofuran-3,4-diol]",7.27,,,,,,,,,,,,,,
"Cc1ncnc2c1ccn2[C@@H]1O[C@H]([C@@H]2OCCc3cc(Cl)ccc32)[C@@H](O)[C@H]1O [Formula IA, (2S,3S,4R,5R)-2-((R)-6-chloroisochroman-1-yl)-5-(4-methyl-7H-pyrrolo[2,3-d]pyrimidin-7-yl)tetrahydrofuran-3,4-diol]",,120,7640,960,160,690,> 50000,14700,160,10800,1990,240,1050,> 50000,43800
